Data as given in US12723063B2, “GIPR-agonist compounds” (Eli Lilly and Company, priority 2019, dated 2026).
pKi: −log10 of the molar value. *1 amine or outer side, *2 acyl side, *3 side chain or, on linkers, in order; H or OH if unused. Where a SMILES comes first, the peptide text is derived from it. Side-chain parts run from the residue outwards. [ ]: non-standard residue; d: D form. The star is where a group is joined. C20 diacid = O=C(O)CCCCCCCCCCCCCCCCCCC(=O)*; C18 diacid = O=C(O)CCCCCCCCCCCCCCCCC(=O)*; γGlu = O=C(O)[C@H](CCC(=O)[*:2])N[*:1]; αMeF = C[C@](N)(Cc1ccccc1)C(=O)O; 4Pal = N[C@@H](Cc1ccncc1)C(=O)O; AEEA = NCCOCCOCC(=O)O; Aib = CC(C)(N)C(=O)O

Legend:
[1] = target: T1, human GIPR (Homo sapiens, UniProt P48546); experiment: [125I]-GIP binding, SPA with WGA beads, 0.1% bacitracin; conditions: geometric mean, read-out: hGIPR Ki
T1 construct: expressed in transfected cells; crude membranes
T1 sequence (P48546 22-466): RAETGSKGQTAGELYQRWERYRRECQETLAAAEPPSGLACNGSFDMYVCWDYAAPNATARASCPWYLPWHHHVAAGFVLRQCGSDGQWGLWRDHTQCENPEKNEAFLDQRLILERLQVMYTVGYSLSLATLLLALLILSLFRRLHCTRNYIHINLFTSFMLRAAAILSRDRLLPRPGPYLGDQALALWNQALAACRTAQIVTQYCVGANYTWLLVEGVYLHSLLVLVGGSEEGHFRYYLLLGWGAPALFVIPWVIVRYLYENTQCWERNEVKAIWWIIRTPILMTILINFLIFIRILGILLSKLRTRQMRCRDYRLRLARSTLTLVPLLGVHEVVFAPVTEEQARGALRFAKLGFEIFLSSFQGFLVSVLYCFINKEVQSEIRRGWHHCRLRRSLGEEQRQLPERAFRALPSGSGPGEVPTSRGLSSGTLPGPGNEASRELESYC
Procedure: (§1) Stably transfected cell lines are prepared by subcloning receptor cDNA into a pcDNA3 expression plasmid and transfected into human embryonic kidney (HEK) 293 (hGcgR and hGLP-1R) or Chinese Hamster Ovary (CHO) (hGIPR) cells followed by selection with Geneticin (hGLP-1R and hGIPR) or hygromycin B (hGcgR).
(§2) Two methods are used for the preparation of crude cell membranes.
(§3) Method 1: Frozen cell pellets are lysed on ice in hypotonic buffer containing 50 mM Tris HCl, pH 7.5, and Roche Complete™ Protease Inhibitors with EDTA. The cell suspension is disrupted using a glass Potter-Elvehjem homogenizer fitted with a Teflon® pestle for 25 strokes. The homogenate is centrifuged at 4° C. at 1100× g for 10 minutes. The supernatant is collected and stored on ice while the pellets are resuspended in homogenization buffer and rehomogenized as described above. The homogenate is centrifuged at 1100× g for 10 minutes. The second supernatant is combined with the first supernatant and centrifuged at 35000× g for 1 hour at 4° C. The resulting membrane pellet is resuspended in homogenization buffer containing protease inhibitors at approximately 1 to 3 mg/mL, quick frozen in liquid nitrogen and stored as aliquots in a −80° C. freezer until use.
(§4) Method 2: Frozen cell pellets are lysed on ice in hypotonic buffer containing 50 mM Tris HCl, pH 7.5, 1 mM MgCl2, Roche Complete™ EDTA-free Protease Inhibitors and 25 units/mL DNAse I (Invitrogen). The cell suspension is disrupted using a glass Potter-Elvehjem homogenizer fitted with a Teflon® pestle for 20 to 25 strokes. The homogenate is centrifuged at 4° C. at 1800× g for 15 minutes. The supernatant is collected and stored on ice while the pellets are resuspended in homogenization buffer (without DNAse I) and rehomogenized as described above. The homogenate is centrifuged at 1800× g for 15 minutes. The second supernatant is combined with the first supernatant and centrifuged an additional time at 1800× g for 15 minutes. The overall supernatant is then centrifuged at 25000× g for 30 minutes at 4° C. The resulting membrane pellet is resuspended in homogenization buffer (without DNAse I) containing protease inhibitors at approximately 1 to 3 mg/mL and stored as aliquots in a −80° C. freezer until use.
The binding buffer contains 25 mM HEPES, pH 7.4, 2.5 mM CaCl2), 1 mM MgCl2, 0.1% (w/v) bacitracin, 0.003% (w/v) TWEEN®-20, and Roche Complete™ Protease Inhibitors without EDTA. […] Plates are sealed and mixed on a plate shaker (setting 6) for 1 minute and read with a PerkinElmer Trilux MicroBeta® scintillation counter after 2.5 to 12 hours of incubation/settling time at room temperature.
(§5) Data are analyzed using four-parameter (curve maximum, curve minimum, IC50, Hill slope) nonlinear regression routines (Genedata Screener, version 12.0.4, Genedata AG, Basal, Switzerland). […] Values for Ki are reported as the geometric mean, with error expressed as the standard error of the mean (SEM) and n is equal to the number of independent replicates (determined in assays performed on different days). […] SEM is only calculated when […] or greater. Means are expressed as geometric means with the standard error of the mean (SEM) and the number of replicates (n) indicated in parentheses.

[2] = target: T2, human GcgR (Homo sapiens, UniProt P47871); experiment: [125I]-Glucagon binding, SPA with WGA beads, 0.1% bacitracin; conditions: geometric mean, read-out: hGcgR Ki
T2 construct: expressed in transfected cells; crude membranes
Procedure: as §1, §2, §3, §4
The human Geg receptor binding assays are performed using a Scintillation Proximity Assay (SPA) format with wheat germ agglutinin (WGA) beads (Perkin Elmer). The binding buffer contains 25 mM 4-(2-hydroxyethyl)-1-piperazineethanesulfonic acid (HEPES), pH 7.4, 2.5 mM CaCl2), 1 mM MgCl2, 0.1% (w/v) bacitracin (Research Products), 0.003% (w/v) Polyoxyethylenesorbitan monolaurate (TWEEN®-20), and Roche Complete™ Protease Inhibitors without EDTA. Peptides and Gcg are thawed and 3-fold serially diluted in 100% DMSO (10 point concentration response curves). Next, 5 μL serially diluted compound or DMSO is transferred into Corning® 3632 clear bottom assay plates containing 45 μL assay binding buffer or unlabeled Gcg control (non-specific binding or NSB, at 1 μM final). […] Plates are sealed and mixed on a plate shaker (setting 6) for 1 minute and read with a PerkinElmer Trilux MicroBeta® scintillation counter after 12 hours of incubation/settling time at room temperature.
as §5

T2 sequence (P47871 26-477): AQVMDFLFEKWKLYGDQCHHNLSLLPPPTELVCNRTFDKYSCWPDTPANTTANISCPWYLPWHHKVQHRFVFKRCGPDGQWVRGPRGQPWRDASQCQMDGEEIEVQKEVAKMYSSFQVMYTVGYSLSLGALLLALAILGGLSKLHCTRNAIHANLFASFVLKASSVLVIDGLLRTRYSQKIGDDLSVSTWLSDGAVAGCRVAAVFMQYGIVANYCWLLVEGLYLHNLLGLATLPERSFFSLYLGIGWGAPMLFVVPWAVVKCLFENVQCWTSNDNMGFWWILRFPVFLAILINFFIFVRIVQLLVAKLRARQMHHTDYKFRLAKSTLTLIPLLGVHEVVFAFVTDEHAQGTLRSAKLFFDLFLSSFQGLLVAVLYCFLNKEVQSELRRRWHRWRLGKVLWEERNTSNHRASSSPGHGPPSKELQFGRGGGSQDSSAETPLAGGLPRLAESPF

## CC[C@H](C)[C@H](NC(=O)[C@H](CO)NC(=O)[C@H](Cc1ccc(O)cc1)NC(=O)[C@H](CC(=O)O)NC(=O)[C@H](CO)NC(=O)[C@@H](NC(=O)[C@H](Cc1ccccc1)NC(=O)[C@@H](NC(=O)CNC(=O)[C@H](CCC(=O)O)NC(=O)[C@@H](C)NC(=O)[C@@H](N)Cc1ccc(O)cc1)[C@@H](C)O)[C@@H](C)CC)C(=O)N[C@@H](CC(C)C)C(=O)N[C@@H](CC(C)C)C(=O)N[C@@H](CC(=O)O)C(=O)N[C@@H](CCCCN)C(=O)N[C@@H](CCCCNC(=O)COCCOCCNC(=O)COCCOCCNC(=O)CC[C@H](NC(=O)CCCCCCCCCCCCCCCCCCC(=O)O)C(=O)O)C(=O)N[C@@H](C)C(=O)N[C@@H](CCC(N)=O)C(=O)N[C@@H](CCC(N)=O)C(=O)N[C@@H](CC(=O)O)C(=O)N[C@@H](Cc1ccccc1)C(=O)N[C@H](C(=O)N[C@@H](CC(N)=O)C(=O)N[C@@H](Cc1c[nH]c2ccccc12)C(=O)N[C@@H](CC(C)C)C(=O)N[C@@H](CC(C)C)C(=O)N[C@@H](C)C(=O)NCC(=O)NCC(=O)N1CCC[C@H]1C(=O)N[C@@H](CO)C(=O)N[C@@H](CO)C(=O)NCC(=O)N[C@@H](C)C(=O)N1CCC[C@H]1C(=O)N1CCC[C@H]1C(=O)N1CCC[C@H]1C(=O)N[C@@H](CO)C(N)=O)C(C)C [Example 12] (H-Y[dA]EGTFISDYSILLDKK([AEEA-AEEA-γGlu-C20 diacid])AQQDFVNWLLAGGPSSGAPPPS-NH2)
[1]
  pKi: 10.06
[2]
  pKi: 6.87

## CC[C@H](C)[C@H](NC(=O)[C@H](CO)NC(=O)[C@H](Cc1ccc(O)cc1)NC(=O)[C@H](CC(=O)O)NC(=O)[C@H](CO)NC(=O)[C@@H](NC(=O)[C@H](Cc1ccccc1)NC(=O)[C@@H](NC(=O)CNC(=O)[C@H](CCC(=O)O)NC(=O)C(C)(C)NC(=O)[C@@H](N)Cc1ccc(O)cc1)[C@@H](C)O)[C@@H](C)CC)C(=O)N[C@@H](C)C(=O)N[C@@H](CC(C)C)C(=O)N[C@@H](CC(=O)O)C(=O)N[C@@H](CCCCN)C(=O)N[C@H](C(=O)N[C@@H](Cc1c[nH]cn1)C(=O)N[C@@H](CCC(N)=O)C(=O)NC(C)(C)C(=O)N[C@@H](CCC(=O)O)C(=O)N[C@@H](Cc1ccccc1)C(=O)N[C@H](C(=O)N[C@@H](CC(N)=O)C(=O)N[C@@H](Cc1ccc(O)cc1)C(=O)N[C@@H](CCCCNC(=O)COCCOCCNC(=O)COCCOCCNC(=O)CC[C@H](NC(=O)CCCCCCCCCCCCCCCCCCC(=O)O)C(=O)O)C(=O)N[C@@H](CC(C)C)C(=O)N[C@@H](C)C(=O)NCC(=O)NCC(=O)N1CCC[C@H]1C(=O)N[C@@H](CO)C(=O)N[C@@H](CO)C(=O)NCC(=O)N[C@@H](C)C(=O)N1CCC[C@H]1C(=O)N1CCC[C@H]1C(=O)N1CCC[C@H]1C(=O)N[C@@H](CO)C(N)=O)C(C)C)[C@@H](C)CC [Example 96] (H-Y[Aib]EGTFISDYSIALDKIHQ[Aib]EFVNYK([AEEA-AEEA-γGlu-C20 diacid])LAGGPSSGAPPPS-NH2)
[1]
  pKi: 9.63
[2]
  pKi: < 6.02

## CC[C@H](C)[C@H](NC(=O)[C@H](CO)NC(=O)[C@H](Cc1ccc(O)cc1)NC(=O)[C@H](CC(=O)O)NC(=O)[C@H](CO)NC(=O)[C@@H](NC(=O)[C@](C)(Cc1ccccc1)NC(=O)[C@@H](NC(=O)CNC(=O)[C@H](CCC(=O)O)NC(=O)C(C)(C)NC(=O)[C@@H](N)Cc1ccc(O)cc1)[C@@H](C)O)[C@@H](C)CC)C(=O)N[C@@H](C)C(=O)N[C@@H](CC(C)C)C(=O)N[C@@H](CC(=O)O)C(=O)N[C@@H](CCCCN)C(=O)N[C@H](C(=O)N[C@@H](Cc1c[nH]cn1)C(=O)N[C@@H](CCC(N)=O)C(=O)NC(C)(C)C(=O)N[C@@H](CCC(=O)O)C(=O)N[C@@H](Cc1ccccc1)C(=O)N[C@H](C(=O)N[C@@H](CC(N)=O)C(=O)N[C@@H](Cc1ccc(O)cc1)C(=O)N[C@@H](CCCCNC(=O)COCCOCCNC(=O)COCCOCCNC(=O)CC[C@H](NC(=O)CCCCCCCCCCCCCCCCCCC(=O)O)C(=O)O)C(=O)N[C@@H](CC(C)C)C(=O)N[C@@H](C)C(=O)NCC(=O)NCC(=O)N1CCC[C@H]1C(=O)N[C@@H](CO)C(=O)N[C@@H](CO)C(=O)NCC(=O)N[C@@H](C)C(=O)N1CCC[C@H]1C(=O)N1CCC[C@H]1C(=O)N1CCC[C@H]1C(=O)N[C@@H](CO)C(N)=O)C(C)C)[C@@H](C)CC [Example 97] (H-Y[Aib]EGT[αMeF]ISDYSIALDKIHQ[Aib]EFVNYK([AEEA-AEEA-γGlu-C20 diacid])LAGGPSSGAPPPS-NH2)
[1]
  pKi: 10.60
[2]
  pKi: 7.11

## CC[C@H](C)[C@H](NC(=O)[C@H](CO)NC(=O)[C@H](Cc1ccc(O)cc1)NC(=O)[C@H](CC(=O)O)NC(=O)[C@H](CO)NC(=O)[C@@H](NC(=O)[C@](C)(Cc1ccccc1)NC(=O)[C@@H](NC(=O)CNC(=O)[C@H](CCC(=O)O)NC(=O)C(C)(C)NC(=O)[C@@H](N)Cc1ccc(O)cc1)[C@@H](C)O)[C@@H](C)CC)C(=O)N[C@@H](C)C(=O)N[C@@H](CC(C)C)C(=O)N[C@@H](CC(=O)O)C(=O)N[C@@H](CCCCN)C(=O)N[C@@H](CCCCNC(=O)COCCOCCNC(=O)COCCOCCNC(=O)CC[C@H](NC(=O)CCCCCCCCCCCCCCCCC(=O)O)C(=O)O)C(=O)N[C@@H](Cc1c[nH]cn1)C(=O)N[C@@H](CCC(N)=O)C(=O)NC(C)(C)C(=O)N[C@@H](CC(=O)O)C(=O)N[C@@H](Cc1ccccc1)C(=O)N[C@H](C(=O)N[C@@H](CCC(=O)O)C(=O)N[C@@H](Cc1ccncc1)C(=O)N[C@@H](CC(C)C)C(=O)N[C@@H](CC(C)C)C(=O)N[C@@H](C)C(=O)NCC(=O)NCC(=O)N1CCC[C@H]1C(=O)N[C@@H](CO)C(=O)N[C@@H](CO)C(=O)NCC(=O)N[C@@H](C)C(=O)N1CCC[C@H]1C(=O)N1CCC[C@H]1C(=O)N1CCC[C@H]1C(=O)N[C@@H](CO)C(N)=O)C(C)C [Example 23] (H-Y[Aib]EGT[αMeF]ISDYSIALDKK([AEEA-AEEA-γGlu-C18 diacid])HQ[Aib]DFVE[4Pal]LLAGGPSSGAPPPS-NH2)
[1]
  pKi: 10.47
[2]
  pKi: 6.49
